Assay results published in paper PMC6278366, “Synthesis and Evaluation of Anticancer Activities of Novel C-28 Guanidine-Functionalized Triterpene Acid Derivatives” (Molecules, 2018).
Where a name gives a salt, the structure may show the parent alone.

Assays:
[1] = tested on: HEK293 (embryonic kidney) cells; assay: Cytotoxicity assay (7-AAD viability, flow cytometry), HEK293; type: cell-based, human; conditions: Homo sapiens, HEK293, mean ± SE, at least three experiments in duplicate; viable cells
How it was run: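 Adherent HeLa, HEK293 and normal human fibroblasts (5 × 10⁴/well, DMEM with 10% FBS, 37 °C, 5% CO2) were treated with compounds at 1, 5, 10, 15, 30 and 60 μM. Viability was read as 7-AAD exclusion by flow cytometry after 15 min staining.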

[2] = tested on: K562 (chronic myeloid leukemia) cells; assay: Cytotoxicity assay (7-AAD viability, flow cytometry), K562; type: cell-based, human; conditions: Homo sapiens, K562, mean ± SE, at least three experiments in duplicate; viable cells; read-out: IC50 K562
How it was run: (§1)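 Suspension lines in RPMI 1640 with 10% FBS at 37 °C, 5% CO2, treated with compounds at 1, 5, 10, 15, 30 and 60 μM. Live/dead status by 7-AAD staining (15 min, room temperature, dark) read on flow cytometer, 488 nm excitation, 675/30 nm emission.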

[3] = tested on: Jurkat (T-lymphoblastic leukemia) cells; assay: cells; type: cell-based; conditions: Homo sapiens, Jurkat, mean ± SE, at least three experiments in duplicate; viable cells; read-out: IC50 Jurkat
How it was run: as §1

[4] = tested on: U937 (histiocytic lymphoma) cells; assay: Cytotoxicity assay (7-AAD viability, flow cytometry), U937; type: cell-based, human; conditions: Homo sapiens, U-937, mean ± SE, at least three experiments in duplicate; viable cells; read-out: IC50 U937
How it was run: as §1

normal human fibroblasts = assay: Cytotoxicity assay (7-AAD viability, flow cytometry), normal fibroblasts; type: cell-based; conditions: Homo sapiens, Fibroblast, mean ± SE, at least three experiments in duplicate

SMILES | IC50 [1] | IC50 [2] | IC50 [3] | IC50 [4] | IC50 (normal human fibroblasts)
CC(=O)O[C@H]1CC[C@@]2(C)C(CC[C@]3(C)C2CCC2C4C(C(C)C)CC[C@]4(C(=O)OCC(N)(CO)CO)CC[C@]23C)C1(C)C (stereo partly drawn) [Compound 15, 3β-[2-Amino-3-hydroxy-2-(hydroxymethyl)propyl]-3-O-acetyl-lupane-28-oate] | 17 ± 0.25 µM | 2.1 ± 0.13 µM | 3.3 ± 0.11 µM | 6.6 ± 0.23 µM | 31 ± 0.29 µM
CC(=O)O[C@H]1CC[C@@]2(C)C(CC[C@]3(C)C2CCC2C4C(C(C)C)CC[C@]4(C(=O)OCC(CO)(CO)NC(=N)N)CC[C@]23C)C1(C)C (stereo partly drawn) [Compound 15c, 3β-[2-Guanidine-3-hydroxy-2-(hydroxymethyl)propyl]-3-O-acetyl-lupane-28-oate hydrochloride] | 16 ± 0.27 µM | 2.3 ± 0.34 µM | 3.1 ± 0.41 µM | 15 ± 0.23 µM | 27 ± 0.14 µM
